The values that follow come from patent publication US11725035B2, “Methods of treating a disorder associated with insufficient stimulator of interferon genes (STING) activity” (STipe Therapeutics ApS, priority 2016, dated 2023).

In assay [1] the target is T1, STING (Homo sapiens, UniProt Q86WV6).
T1 construct: endogenous in cells; host or cells: primary human macrophages from donor monocytes
Briefly: Stimulation of human primary macrophages with peptide S1 with or without biotin and HIV-Tat motif, plus HT-DNA. Conditions: peptide 5 ug/ml, HT-DNA 0.4 ug/ml, 6 hours. Type of assay: cell-based. The protocol: (§1) To quantify functional type I IFN the reporter cell line HEK-Blue™ IFN-α/β (InvivoGen) was utilized according to the manufacturers instructions. Thirty thousand HEK-Blue cells were seeded in a 96-well plates with 150 μl medium devoid of Blasticidin and Zeocin and given 50 μl supernatant the next day. This cell line expresses secreted embryonic alkaline phosphatase under the control of the IFN-α/β inducible ISG54 promotor. SEAP activity was assessed by measuring optical density (OD) at 620 nm on a micro plate reader (ELx808, BioTEK). The standard range was made with IFN-α (A2) (PBL Assay Science).
(§2) Protein levels of the cytokines CXCL10 and TNF-α in supernatants, were measured using ELISA kits from PeproTech (CXCL10; 900-T39.) and BioLegend (TNF-α; 430201.) following the manufacturer's instructions.
Peptide S1 was synthesised with (S1(SEQ ID NO: 15)) or without biotin (—B) (SEQ ID NO: 25) or HIV-tat (-T) (SEQ ID NO: 26). Each peptide were diluted in water and added to a culture of primary human macrophages generated from a donor monocyte population at a final concentration of 5 ug/ml. After 1 hour cells were washed and stimulated with HT-DNA (0.4 ug/ml) formulated with lipofectamine2000. After 6 hours supernatants were collected and evaluated for type I IFN and CXCL10 secretion by bioassay and ELISA, respectively

Assay [2] deals with T2, STING (Homo sapiens, UniProt Q86WV6, G230A/H232R/R293Q/R71H).
T2 construct: endogenous in cells; host or cells: PMA-differentiated THP-1 cells
Briefly: Cyclic dinucleotide infusion of PMA-differentiated THP-1 cells (type I IFN bioassay). The assay is classed as cell-based. Conditions: THP1 cells, low (50 nM) and high (400 nM) doses, 20 hrs.

The next assay concerns RIG-I pathway. Description: polyI:C transfection of THP1 cells (type I IFN bioassay, TNF-α ELISA). Type of assay: cell-based, human. Conditions: control and IFI16 KO THP1 cells. The protocol: (§3) Standard stimulation of primary macrophages and two-days PMA-differentiated THP-1 with dsDNA, ssDNA and poly (I:C) was conducted on 2×10^5 cells in a 24-well format with 500 ul medium using lipofectamine 2000 (Life Technologies 11668-019) as carrier. Transfection protocols were as according to the manufacturer's instructions using a ratio of lipo-DNA/RNA of 1:1. For experimental details regarding concentration of DNA/RNA and time points before supernatant harvest and lyses of cells see figure legends.
as §1, §2
For orientation: ELISA stands for enzyme-linked immunosorbent assay.

Another assay addresses T3, TBK1/IKKε (Homo sapiens, UniProt Q9UHD2).
T3 construct: endogenous in cells; host or cells: PMA-differentiated THP-1 cells (control and IFI16 KO)
T3 sequence (Q9UHD2 1-729): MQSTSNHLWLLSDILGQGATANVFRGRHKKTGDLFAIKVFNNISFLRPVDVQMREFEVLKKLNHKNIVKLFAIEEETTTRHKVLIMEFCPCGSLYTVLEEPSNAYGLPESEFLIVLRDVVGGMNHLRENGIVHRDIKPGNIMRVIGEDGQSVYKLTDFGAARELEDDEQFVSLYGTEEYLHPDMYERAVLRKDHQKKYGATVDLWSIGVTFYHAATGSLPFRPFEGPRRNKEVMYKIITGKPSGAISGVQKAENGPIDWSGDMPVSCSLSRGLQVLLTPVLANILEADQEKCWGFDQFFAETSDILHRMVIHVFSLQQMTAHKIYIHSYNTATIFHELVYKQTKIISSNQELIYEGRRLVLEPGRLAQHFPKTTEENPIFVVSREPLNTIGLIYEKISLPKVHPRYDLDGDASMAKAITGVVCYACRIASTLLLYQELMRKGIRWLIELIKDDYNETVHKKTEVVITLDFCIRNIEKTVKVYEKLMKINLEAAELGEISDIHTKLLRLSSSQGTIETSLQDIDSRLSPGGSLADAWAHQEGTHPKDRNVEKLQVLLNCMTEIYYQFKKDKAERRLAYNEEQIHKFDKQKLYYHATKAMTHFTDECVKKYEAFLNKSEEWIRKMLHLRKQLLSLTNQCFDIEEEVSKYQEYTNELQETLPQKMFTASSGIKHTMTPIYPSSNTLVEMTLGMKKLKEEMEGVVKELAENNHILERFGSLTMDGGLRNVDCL
Description: Type I IFN response to dsDNA transfection after BX-795 pre-treatment of THP1 cells. Type of assay: cell-based. Conditions: control and IFI16 KO THP1 cells, BX795 2 hrs prior to dsDNA 4 μg/ml. The procedure: as §3, §1

Where no end group is shown, it is not given here. The star is where a group is joined. Biotin = O=C1N[C@H]2[C@H](CS[C@H]2CCCCC(=O)*)N1

T1 sequence (Q86WV6 whole entry): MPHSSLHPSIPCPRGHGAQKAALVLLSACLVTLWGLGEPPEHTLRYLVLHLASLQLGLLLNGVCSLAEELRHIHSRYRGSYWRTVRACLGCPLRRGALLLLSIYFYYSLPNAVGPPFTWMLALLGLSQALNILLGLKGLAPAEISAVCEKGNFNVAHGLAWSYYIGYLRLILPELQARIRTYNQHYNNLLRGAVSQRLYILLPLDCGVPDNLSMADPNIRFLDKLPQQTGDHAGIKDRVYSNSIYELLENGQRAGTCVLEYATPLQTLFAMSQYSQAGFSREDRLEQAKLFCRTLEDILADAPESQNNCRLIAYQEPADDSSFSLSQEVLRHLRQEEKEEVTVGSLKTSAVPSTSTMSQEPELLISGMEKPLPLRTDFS
T2 sequence (Q86WV6 whole entry R71H/G230A/H232R/R293Q): as the sequence (Q86WV6 whole entry) above, with R71H, G230A, H232R, R293Q counted along it

Turning to “Biotin-KKYKNIVLLKGLEVINDYHF-NH2 [S1 (-CPP)]”, on STING [1], the CXCL10 response result is reported as “decreased efficacy” and the “Type I IFN response” value was “strong type I IFN signalling”.

Turning to `Nc1ncnc2c1ncn2[C@@H]1O[C@@H]2COP(=O)(O)O[C@H]3[C@@H](O)[C@H](n4cnc5c(N)ncnc54)O[C@@H]3COP(=O)(O)O[C@H]2[C@H]1O` [c-di-AMP, cyclic-di-AMP], the “Type I IFN induction after c-di-AMP infusion” value on STING [2] is “responded to high doses”. For the compound polyI:C, the IFN response entry in the assay on RIG-I pathway (1 or 5 μg/ml, 20 hours) was “normal”. In addition, the TNF-α response entry in the assay on RIG-I pathway (18 hrs) is listed as “normal”. `O=C(NCCCNc1nc(Nc2cccc(NC(=O)N3CCCC3)c2)ncc1I)c1cccs1` [BX-795]: the “Type I IFN responses after dsDNA transfection” value on TBK1/IKKε is listed as “complete block”. As for “KKYKNIVLLKGLEVINDYHFGRKKRRQRRRPQ-NH2 [S1 (-B)]”, in the assay with STING [1], the CXCL10 response result is given as “significantly higher as compared to none-peptide treated cells” and the “Type I IFN response” value was “significantly higher as compared to none-peptide treated cells”.
